{
  "source": "patent US10906946B2",
  "about": "“Thrombin inhibitors” (priority 2015, dated 2021)",
  "key": {"[1]": {"test_system": "platelets (ADP-induced platelet aggregation)", "experiment": "Preservation of platelet function in blood tubes (Multiplate, ADP-induced platelet aggregation)", "type": "cell-based, human (healthy volunteers)", "conditions": "ADP agonist", "protocol": "Individual peptides are dissolved in phosphate buffered saline to prepare 10× peptide solutions (ie. concentrations of peptides are 10 times higher than the final concentrations at which they are to be tested). 0.3 ml of the 10× peptide solutions are placed in blood tubes without any additives. Blood was drawn from healthy volunteers using syringes and immediately transferred to a 50 ml conical centrifuge tube (Falcon tube) before pipetting 2.7 ml of the blood into blood tubes with peptide solutions. Final concentrations of peptides are as stated in Table 5 and 6.\nBlood tubes with various peptides at different concentrations were left standing at room temperature until tested at designated times. At different time points, tubes were inverted several times and blood samples were taken out for platelet aggregation tests using a Multiplate® Platelet aggregometer with adenosine diphosphate (ADP) as agonist according to manufacturer's recommended protocols."}, "thrombin": {"molecular_target": "T1, thrombin (Homo sapiens, UniProt P00734)", "T1 construct": "residues in the termini of the light chain; and in the autolysis loop and C-terminus of the heavy chain; purchased Chemo-Sero-Therapeutic Research Institute (Kaketsuken, Japan), as a gift, not bought", "experiment": "Inhibition of thrombin fibrinogenolytic activity (fibrinogen clotting time)", "type": "biochemical", "protocol": "Thrombin amidolytic activity assays for all peptides were performed in 96-wells microtiter plates in 50 mM Tris buffer (pH 7.4) containing 100 mM NaCl and 1 mg/ml bovine serum albumin. Typically, 100 μl of peptide and 100 μl of thrombin were pre-incubated for different durations before 100 μl of S2238 was added to the reaction wells. The rates of formation of p-nitroaniline were followed by measuring the absorbance at 405 nm for 10 min with a Tecan InfinitePro M200 microplate reader from Tecan (Männedorf, Switzerland). Dose-response curves were fitted using the GraphPad Prizm software (San Diego, Calif., USA) to calculate IC50 values and Hill coefficients. To measure the inhibitory constants, different concentrations of S2238 were used and the residual velocities were determined using the Morrison's tight binding equation. Inhibition of thrombin fibrinogenolytic activity of peptides were tested by measuring absorbance at 650 nm using a Sunrise microplate reader from Tecan (Männedorf, Switzerland) as described previously [Koh C Y, et al., J Biol Chem 282: 29101-13 (2007)]. The selectivity of avathrin was examined against 13 serine proteases (FIG. 5). Effects of avathrin on the amidolytic activities of these serine proteases were determined using respective chromogenic substrates. Cleavage of avathrin by thrombin. Avathrin (150 μM) was incubated with thrombin (5 μM), in 50 mM Tris buffer (pH 7.4) containing 150 mM NaCl and 1 mg/ml BSA. After different incubation times, reactions were quenched with 1% TFA (pH 1.8) and loaded onto a Jupiter Proteo column (4 μm, 90 Å, 100×1.0 mm) attached to a Dionex nano-HPLC system from Thermo Fisher Scientific (Waltham, Mass., USA) and eluted using an acetonitrile gradient with 0.05% TFA and 99.95% MilliQ water as eluent A and 0.05% TFA, 19.95% MilliQ water and 80% ACN as eluent B. Masses of all peaks were measured to identify cleavage products, which were subsequently quantified by integrating the peaks and calculating the area under the curves. To measure the effect of different pre-incubation times on the thrombin inhibitory activity, amidolytic assays were performed for various incubation times (up to 36 h)."}},
  "note": "Read-outs that look alike come from different tables or passages of the source. Peptide text beside a SMILES is read from it.",
  "data": [
    {"smiles": "CC[C@H](C)[C@H](NC(=O)[C@H](CCCCN)NC(=O)[C@@H]1CCCN1C(=O)[C@@H](NC(=O)[C@H](C)NC(=O)[C@@H](NC(=O)[C@H](CCC(N)=O)NC(=O)[C@H](Cc1c[nH]cn1)NC(=O)CNC(=O)CNC(=O)[C@@H](N)CO)[C@@H](C)O)C(C)C)C(=O)N[C@@H](CO)C(=O)N[C@@H](CCCCN)C(=O)N[C@@H](CCC(N)=O)C(=O)NCC(=O)N[C@@H](CC(C)C)C(=O)NCC(=O)NCC(=O)N[C@@H](CC(=O)O)C(=O)N[C@@H](Cc1ccccc1)C(=O)N[C@@H](CCC(=O)O)C(=O)N[C@@H](CCC(=O)O)C(=O)N[C@H](C(=O)N1CCC[C@H]1C(=O)N[C@@H](CO)C(=O)N[C@@H](CC(=O)O)C(=O)N[C@@H](CCC(=O)O)C(=O)N[C@H](C(=O)N[C@H](C(=O)N[C@@H](CCC(=O)O)C(=O)O)[C@@H](C)CC)[C@@H](C)CC)[C@@H](C)CC", "note": "[Avathrin] (H-SGGHQTAVPKISKQGLGGDFEEIPSDEIIE-OH; N-terminus and C-terminus assumed)", "values": [
      {"measurement": "Multiplate AUC (U)", "setting": "[1]; 1.5 h, peptide 150 μM", "value": 60.9, "unit": "U"},
      {"measurement": "Multiplate AUC (U)", "setting": "[1]; 1.5 h, peptide 300 μM", "value": 62.4, "unit": "U"},
      {"measurement": "Multiplate AUC (U)", "setting": "[1]; 4 h, peptide 150 μM", "value": 53.6, "unit": "U"},
      {"measurement": "Multiplate AUC (U)", "setting": "[1]; 4 h, peptide 300 μM", "value": 46.8, "unit": "U"},
      {"measurement": "Multiplate AUC (U)", "setting": "[1]; 24 h, peptide 150 μM", "value": 55.8, "unit": "U"},
      {"measurement": "Multiplate AUC (U)", "setting": "[1]; 24 h, peptide 300 μM", "value": 43.3, "unit": "U"},
      {"measurement": "Multiplate AUC (U)", "setting": "[1]; 48 h, peptide 300 μM", "value": 3.5, "unit": "U"},
      {"measurement": "effect on fibrinogen clotting time / thrombin fibrinogenolytic activity", "setting": "thrombin", "value": "prolonged fibrinogen clotting time in a dose-dependent manner"},
      {"measurement": "effect on fibrinogen clotting time / thrombin fibrinogenolytic activity", "setting": "thrombin; listed as avathrin", "value": "prolonged fibrinogen clotting times in a dose dependent manner"}
    ]},
    {"smiles": "CC[C@H](C)[C@H](NC(=O)[C@H](C)NC(=O)[C@H](CC(=O)O)NC(=O)[C@H](CC(=O)O)NC(=O)[C@@H]1CCCN1C(=O)[C@@H](NC(=O)[C@H](CCC(=O)O)NC(=O)[C@H](CCC(=O)O)NC(=O)[C@H](Cc1ccccc1)NC(=O)[C@H](CC(=O)O)NC(=O)CNC(=O)[C@@H]1CCCN1C(=O)[C@@H]1CCCN1C(=O)[C@H](C)NC(=O)[C@@H](NC(=O)[C@H](CO)NC(=O)[C@H](Cc1ccc(O)cc1)NC(=O)[C@H](CCSC)NC(=O)[C@H](CCCCN)NC(=O)[C@@H]1CCCN1C(=O)[C@@H](NC(=O)[C@H](C)NC(=O)[C@H](CCCNC(=N)N)NC(=O)[C@@H](NC(=O)[C@H](C)NC(=O)[C@H](CCC(=O)O)NC(=O)[C@H](CC(=O)O)NC(=O)[C@@H](N)CO)C(C)C)[C@@H](C)CC)[C@@H](C)O)[C@@H](C)CC)C(=O)N[C@@H](CCC(=O)O)C(=O)N[C@@H](CCC(=O)O)C(=O)O", "note": "[Ultravariegin] (H-SDEAVRAIPKMYSTAPPGDFEEIPDDAIEE-OH; N-terminus and C-terminus assumed)", "values": [
      {"measurement": "Multiplate AUC (U)", "setting": "[1]; 1.5 h, peptide 150 μM", "value": 55.7, "unit": "U"},
      {"measurement": "Multiplate AUC (U)", "setting": "[1]; 1.5 h, peptide 300 μM", "value": 66.3, "unit": "U"},
      {"measurement": "Multiplate AUC (U)", "setting": "[1]; 4 h, peptide 150 μM", "value": 52, "unit": "U"},
      {"measurement": "Multiplate AUC (U)", "setting": "[1]; 4 h, peptide 300 μM", "value": 46.1, "unit": "U"},
      {"measurement": "Multiplate AUC (U)", "setting": "[1]; 24 h, peptide 150 μM", "value": 43.1, "unit": "U"},
      {"measurement": "Multiplate AUC (U)", "setting": "[1]; 24 h, peptide 300 μM", "value": 39.5, "unit": "U"},
      {"measurement": "Multiplate AUC (U)", "setting": "[1]; 48 h, peptide 150 μM", "value": 7.4, "unit": "U"},
      {"measurement": "Multiplate AUC (U)", "setting": "[1]; 48 h, peptide 300 μM", "value": 25.4, "unit": "U"},
      {"measurement": "Multiplate AUC (U)", "setting": "[1]; 72 h, peptide 150 μM", "value": 9.6, "unit": "U"},
      {"measurement": "Multiplate AUC (U)", "setting": "[1]; 72 h, peptide 300 μM", "value": 15.4, "unit": "U"},
      {"measurement": "effect on fibrinogen clotting time / thrombin fibrinogenolytic activity", "setting": "thrombin", "value": "prolonged fibrinogen clotting times in a dose dependent manner"}
    ]}
  ]
}
